Measured values as given in patent US10053431B2, “Tetrahydro-benzodiazepinones” (priority 2013, dated 2018).
Where a name gives a salt, the structure may show the parent alone.

What was measured:
BIR2 domain of XIAP = BIR2 domain of XIAP (Homo sapiens (Human), UniProt P98170, C202A/C213G); experiment: TR-FRET assay for BIR2 (inhibition of binding of XIAP BIR2 domain to SMAC-derived Peptide A); conditions: 6x His-tagged BIR2 domain (aa 124-240 of XIAP) 10 nM, Peptide A 20 nM, TR-FRET; read-out: IC50 BIR2
BIR2 domain of XIAP, sequence (P98170 124-240 with tags or gaps C202A/C213G limits assumed): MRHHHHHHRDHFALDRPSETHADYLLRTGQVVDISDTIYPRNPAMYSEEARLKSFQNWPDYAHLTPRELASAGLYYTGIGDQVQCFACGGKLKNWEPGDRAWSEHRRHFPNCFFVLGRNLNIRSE

BIR3 domain of XIAP = BIR3 domain of XIAP (Homo sapiens (Human), UniProt P98170); experiment: TR-FRET assay for BIR3 (inhibition of binding of XIAP BIR3 domain to SMAC-derived Peptide A); conditions: 6x His-tagged BIR3 domain (aa 241-356 of XIAP) 10 nM, Peptide A 20 nM, TR-FRET
BIR3 domain of XIAP, sequence (P98170 241-356 with tags or gaps limits assumed): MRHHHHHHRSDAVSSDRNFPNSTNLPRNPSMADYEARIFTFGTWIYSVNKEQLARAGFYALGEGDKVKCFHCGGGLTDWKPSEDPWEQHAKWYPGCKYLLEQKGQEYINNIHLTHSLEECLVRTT

| SMILES | IC50 (BIR2 domain of XIAP) [nM] | IC50 (BIR3 domain of XIAP) [nM] |
| --- | --- | --- |
| CCN[C@@H](C)C(=O)N[C@H]1CN(C(=O)CS(C)(=O)=O)c2ccccc2N(Cc2c(OC)ccc3cc(Br)ccc23)C1=O [Example 149, (S)-N-((S)-1-((6-bromo-2-methoxynaphthalen-1-yl)methyl)-5-(2-(methylsulfonyl)acetyl)-2-oxo-2,3,4,5-tetrahydro-1H-benzo[b][1,4]diazepin-3-yl)-2-(ethylamino)propanamide] | 183 | > 54800 |
| CN[C@@H](C)C(=O)N[C@H]1CN(C(=O)c2ccc(F)cc2)c2cc(C#N)ccc2N(Cc2c(OC(F)F)ccc3ccccc23)C1=O [Example 151, (S)-N-((S)-7-cyano-1-((2-(difluoromethoxy)naphthalen-1-yl)methyl)-5-(4-fluorobenzoyl)-2-oxo-2,3,4,5-tetrahydro-1H-benzo[b][1,4]diazepin-3-yl)-2-(methylamino)propanamide hydrochloride] | 28.4 | 49000 |
| CCN[C@@H](CC)C(=O)N[C@H]1CN(C(=O)CS(C)(=O)=O)c2ccccc2N(Cc2c(OC)ccc3c(Br)cccc23)C1=O [Example 155, (S)-N-((S)-1-((5-bromo-2-methoxynaphthalen-1-yl)methyl)-5-(2-(methylsulfonyl)acetyl)-2-oxo-2,3,4,5-tetrahydro-1H-benzo[b][1,4]diazepin-3-yl)-2-(ethylamino)butanamide hydrochloride] | 18.6 | > 54800 |
| CN[C@@H](C)C(=O)N[C@H]1CN(C(=O)c2ccc3cn[nH]c3c2)c2ccccc2N(Cc2c(C)ccc3ccccc23)C1=O [Example 158, (2S)-N-[(3S)-1-(1H-indazole-6-carbonyl)-5-[(2-methylnaphthalen-1-yl)methyl]-4-oxo-2,3-dihydro-1,5-benzodiazepin-3-yl]-2-(methylamino)propanamide] | 18.2 | > 54800 |
| CN[C@@H](C)C(=O)N[C@H]1CN(C(=O)CS(C)(=O)=O)c2cc(C#N)ccc2N(Cc2c(OC)ccc3c(Br)cccc23)C1=O [Example 160, (S)-N-((S)-1-((5-bromo-2-methoxynaphthalen-1-yl)methyl)-7-cyano-5-(2-(methylsulfonyl)acetyl)-2-oxo-2,3,4,5-tetrahydro-1H-benzo[b][1,4]diazepin-3-yl)-2-(methylamino)propanamide hydrochloride] | 16.1 | > 54800 |
| CN[C@@H](C)C(=O)N[C@H]1CN(C(=O)CS(C)(=O)=O)c2cc(C#N)ccc2N(Cc2nn(-c3ccccc3C#N)c3ccccc23)C1=O [Example 161, (2S)-N-[(3S)-7-cyano-1-[[1-(2-cyanophenyl)indazol-3-yl]methyl]-5-(2-methylsulfonylacetyl)-2-oxo-3,4-dihydro-1,5-benzodiazepin-3-yl]-2-(methylamino)propanamide;2,2,2-trifluoroacetic acid] | 53.9 | > 54800 |
| CN[C@@H](C)C(=O)N[C@H]1CN(C(=O)c2ccc(C(C)=O)cc2)c2cc(C#N)ccc2N(Cc2nn(-c3ccccc3C#N)c3ccccc23)C1=O [Example 162, (S)-N-((S)-5-(4-acetylbenzoyl)-7-cyano-1-((1-(2-cyanophenyl)-1H-indazol-3-yl)methyl)-2-oxo-2,3,4,5-tetrahydro-1H-benzo[b][1,4]diazepin-3-yl)-2-(methylamino)propanamide hydrochloride] | 18.3 | > 54800 |
| CN[C@@H](C)C(=O)N[C@H]1CN(C(=O)CS(C)(=O)=O)c2cc(C#N)ccc2N(Cc2c(OC)ccc3ccccc23)C1=O [Example 166, (S)-N-((S)-7-cyano-1-((2-methoxynaphthalen-1-yl)methyl)-5-(2-(methylsulfonyl)acetyl)-2-oxo-2,3,4,5-tetrahydro-1H-benzo[b][1,4]diazepin-3-yl)-2-(methylamino)propanamide hydrochloride] | 20 | 43600 |
